The record followed here is ChEMBL document CHEMBL1158788, “Cytotoxic constituents of the fruit body of Daedalea dickisii” (J Nat Prod, 2005).

Structures are written as SMILES. Active and inactive are the calls of the source. The rule behind the calls is not given here.

Common to all, as to assay type: functional, cell-based
For test [1], the system named is HL-60. Nature of the test: Cytotoxicity against human HL60 cells after 24 hrs by MTT assay. The note with it: HL-60, 24 h.
The subject of test [2] is HCT-15. Nature of the test: Cytotoxicity against human HCT15 cells after 48 hrs by MTT assay. The note with it: HCT-15, 48 h. Background: Tetrazolium assays rely on reduction of a dye to a coloured formazan, in cell work by metabolically active cells.
In test [3] the test system is HL-60. Kind of test: Induction of apoptosis in human HL60 cells assessed as DNA fragmentation at 35 uM after 8 hrs.

By IC50 is commonly meant the point on the concentration scale where inhibition reaches its midpoint. Lower therefore signals higher potency.

In the case of `CC(C(=O)O)[C@@H](C)C(=O)C[C@@H](C)[C@H]1CC[C@@]2(C)C3=C(CC[C@]12C)[C@@]1(C)CC[C@@H](OC(=O)CC(=O)O)C(C)(C)[C@@H]1CC3` (some centres not stated) [CARBOXYACETYLQUERCINIC ACID], the IC50 was determined as 45.2 µM in test [1] and 155 µM in test [2].

For the compound `C=C(CC[C@@H](C(=O)O)[C@H]1[C@H](O)C[C@@]2(C)c3ccc(C)c(CCC(=O)C(C)C)c3CC[C@]12C)C(C)C` [DAEDALEANIC ACID A], the IC50 stood at 36 µM in test [1] and 206 µM in test [2].

In the case of `C=C(CC[C@@H](C(=O)O[C@@H]1O[C@H](CO)[C@@H](O)[C@H](O)[C@H]1O)[C@H]1[C@H](OC(C)=O)C[C@@]2(C)C3=CC[C@H]4C(C)(C)C(=O)CC[C@]4(C)C3=CC[C@]12C)C(C)C` [DAEDALEASIDE B], the concentration for half-maximal inhibition (IC50) in test [1] was 9.4 µM; in test [2], 55 µM. In addition, the result in test [3] was Active.

Take `C=C(CC[C@@H](C(=O)O[C@@H]1O[C@H](COC(C)=O)[C@@H](O)[C@H](O)[C@H]1O)[C@H]1[C@H](OC(C)=O)C[C@@]2(C)C3=CC[C@H]4C(C)(C)C(=O)CC[C@]4(C)C3=CC[C@]12C)C(C)C` [DAEDALEASIDE C]: the IC50 in test [1] is 12 µM. In addition, in test [3], the result was Active.

For the compound `C=C(CC[C@@H](C(=O)O[C@@H]1O[C@H](CO)[C@@H](O)[C@H](O)[C@H]1O)[C@H]1[C@H](OC(C)=O)C[C@@]2(C)C3=C(CC[C@]12C)[C@@]1(C)CCC(=O)C(C)(C)[C@@H]1CC3)C(C)C` [DAEDALEASIDE D], the IC50 in test [1] amounted to 14 µM; in test [2], 60 µM. Besides, the result in test [3] was Active.

In test [1], `C=C(CC[C@@H](C(=O)O[C@@H]1O[C@H](COC(C)=O)[C@@H](O)[C@H](O)[C@H]1O)[C@H]1[C@H](OC(C)=O)C[C@@]2(C)C3=C(CC[C@]12C)[C@@]1(C)CCC(=O)C(C)(C)[C@@H]1CC3)C(C)C` [DAEDALEASIDE E] registered an IC50 of 15 µM. Also, the result in test [3] was Active.

`C=C(CC[C@@H](C(=O)O[C@@H]1O[C@H](CO)[C@@H](O)[C@H](O)[C@H]1O)[C@H]1[C@H](OC(C)=O)C[C@@]2(C)c3ccc(C)c(CCC(=O)C(C)C)c3CC[C@]12C)C(C)C` [DAEDALEASIDES A]: the IC50 in test [1] was determined as 27.9 µM; in test [2] it was 32.3 µM.

As for `COc1cc([C@@H]2c3cc4c(cc3[C@@H](O[C@@H]3O[C@@H]5CO[C@@H](C)O[C@H]5[C@H](O)[C@H]3O)[C@H]3COC(=O)[C@H]23)OCO4)cc(OC)c1O` [ETOPOSIDE], half-maximal inhibition in test [1] (IC50) required 25 µM. This counts as double-digit micromolar.
